# According to US20050101595A1, “N-containing cycloalkyl-substituted amino-thiazole derivatives and pharmaceutical compositions for inhibiting cell proliferation and methods for their use” (PFIZER INC., priority 2003, published 2005):
# pIC50, pKi: −log10 of the molar value. Where a name gives a salt, the structure may show the parent alone. Read-outs that look alike come from different tables or passages of the source.
# Key:
# [1] = molecular target: CDK2/Cyclin A (Homo sapiens, UniProt P24941); test: Inhibition of CDK2/Cyclin A Retinoblastoma Kinase Activity; format: biochemical; conditions: apparent Ki, CDK2/proteolyzed cyclin A, Rb fragment substrate, 25 μM ATP
# Procedure, shortened: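 CDK2 (10 or 19 nM), insect-cell expressed, gel-filtration purified with truncated cyclin A; Rb fragment substrate; 25 μM ATP; 10 mM HEPES pH 7.4, 10 mM MgCl2; 30° C, 60 or 75 min; EDTA stop; phosphocellulose/nitrocellulose capture, phosphorimager. % inhibition vs DMSO control, no-enzyme background subtracted.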
# [2] = molecular target: human CDK4 and genetically truncated (1-264) cyclin D3 (Homo sapiens, UniProt P11802); test: Inhibition of CDK4/Cyclin D Retinoblastoma Kinase Activity; format: biochemical; conditions: apparent Ki, CDK4/truncated cyclin D3, Rb fragment substrate, 25 μM ATP
# human CDK4 and genetically truncated (1-264) cyclin D3, sequence (P11802 whole entry, the tested form may be a part): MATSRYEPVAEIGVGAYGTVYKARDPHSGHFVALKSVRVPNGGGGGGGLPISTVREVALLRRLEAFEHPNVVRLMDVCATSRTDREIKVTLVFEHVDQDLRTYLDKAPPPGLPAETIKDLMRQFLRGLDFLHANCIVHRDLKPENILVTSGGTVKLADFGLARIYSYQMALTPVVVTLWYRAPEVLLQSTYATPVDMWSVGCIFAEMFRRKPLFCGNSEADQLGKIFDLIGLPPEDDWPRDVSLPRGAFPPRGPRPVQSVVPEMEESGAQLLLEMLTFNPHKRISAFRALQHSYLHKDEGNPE
# human CDK4 and genetically truncated (1-264) cyclin D3, sequence (P30281 1-264 partner): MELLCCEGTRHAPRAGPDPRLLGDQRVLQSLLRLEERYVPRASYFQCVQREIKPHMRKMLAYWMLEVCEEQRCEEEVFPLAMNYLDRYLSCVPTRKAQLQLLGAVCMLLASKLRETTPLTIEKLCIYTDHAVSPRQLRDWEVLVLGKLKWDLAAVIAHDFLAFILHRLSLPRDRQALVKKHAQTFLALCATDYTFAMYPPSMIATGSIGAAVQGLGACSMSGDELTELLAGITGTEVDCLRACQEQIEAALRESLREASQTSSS
# Procedure, shortened: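 The enzyme complex (5 nM), expressed in co-infected insect cells, was incubated with recombinant Rb fragment, 25 μM radiolabelled ATP and 2% DMSO at 30 °C. Reactions were stopped with EDTA after 20 minutes, or 60 minutes for tight-binding inhibitors. Apparent Ki values came from competitive inhibition fits.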
# [3] = test system: HCT-116 cell line; test: Inhibition of cell growth, tetrazolium salt (MTT) assay; format: cell-based; conditions: Homo sapiens, HCT-116, 120 h, MTT, three to five days, read-out: HCT-116 IC50
# Procedure, shortened: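 MTT colorimetric viability: three-to-five-day compound exposure in 0.5% (v/v) DMSO at 37° C, MTT 0.2 mg/mL for the last 4 h, A540 compared with vehicle-treated cells.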
Structure (SMILES),pKi [1],pKi [2],pIC50 ([3]; first HCT-116 column (c4)),pIC50 ([3]; second HCT-116 column (c5))
"CN(C)CCN(C)c1ncc(S(=O)(=O)N2CCC(Nc3nc(N)c(C(=O)c4c(F)cccc4F)s3)CC2)cc1Br [Example G24, 1-[4-Amino-2-(1-{5-bromo-6-[(2-dimethylamino-ethyl)-methyl-amino]-pyridine-3-sulfonyl}-piperidin-4-ylamino)-thiazol-5-yl]-1-(2,6-difluoro-phenyl)-methanone]",9.07,9.32,6.54,6.21
"Nc1nc(NC2CCN(S(=O)(=O)c3ccc(-n4ccnc4)nc3)CC2)sc1C(=O)c1c(F)cccc1F [Example G25, 1-{4-Amino-2-[1-(6-imidazol-1-yl-pyridine-3-sulfonyl)-piperidin-4-ylamino]-thiazol-5-yl}-1-(2,6-difluoro-phenyl)-methanone Trifluoroacetic Acid Salt]",9.57,9.44,7.20,< 6.30
"C[C@@H]1CN(c2ccc(S(=O)(=O)N3CCC(Nc4nc(N)c(C(=O)c5c(F)cccc5F)s4)CC3)cc2)C[C@H](C)N1 [Example G29, 1-(4-Amino-2-{1-[4-(3R,5S-dimethyl-piperazin-1-yl)-benzenesulfonyl]-piperidin-4-ylamino}-thiazol-5-yl)-1-(2,6-difluoro-phenyl)-methanone]",9.14,9.21,7.35,6.60
"CC1(C)CN(c2ccc(S(=O)(=O)N3CCC(Nc4nc(N)c(C(=O)c5c(F)cccc5F)s4)CC3)cc2)CCN1 [Example G31, 1-(4-Amino-2-{1-[4-(3,3-dimethyl-piperazin-1-yl)-benzenesulfonyl]-piperidin-4-ylamino}-thiazol-5-yl)-1-(2,6-difluoro-phenyl)-methanone]",9.09,9.28,6.96,5.82
"CN(C)CCN(C)c1ccc(C(=O)N2CCC(Nc3nc(N)c(C(=O)c4c(F)cccc4F)s3)CC2)cn1 [Example G32, 1-{4-Amino-2-[1-(1-{6-[(2-dimethylamino-ethyl)-methyl-amino]-pyridin-3-yl}-methanoyl)-piperidin-4-ylamino]-thiazol-5-yl}-1-(2,6-difluoro-phenyl)-methanone Trifluoroacetic Acid Salt]",7.22,7.38,5.33,< 5.30
"C[C@@H]1CN(c2ncc(S(=O)(=O)N3CCC(Nc4nc(N)c(C(=O)c5c(F)cccc5F)s4)CC3)cn2)C[C@H](C)N1 [Example G33, (4-Amino-2-{1-[2-(3,5-dimethyl-piperazine-1-yl)-pyrimidine-5-sulfonyl]-piperidine-4-ylamino}-thiazol-5-yl)-(2,6-difluoro-phenyl)-methanone Hydrochloride Salt]",9.00,9.52,7.29,6.10

# More lines, now with the values ahead:
pKi [1],pKi [2],pIC50 ([3]; first HCT-116 column (c4)),pIC50 ([3]; second HCT-116 column (c5)),Structure (SMILES)
9.19,8.89,6.85,6.66,"Cc1nccn1-c1ccc(S(=O)(=O)N2CCC(Nc3nc(N)c(C(=O)c4c(F)cccc4F)s3)CC2)cn1 [Example G26, 1-(4-Amino-2-{1-[6-(2-methyl-imidazol-1-yl)-pyridine-3-sulfonyl]-piperidin-4-ylamino}-thiazol-5-yl)-1-(2,6-difluoro-phenyl)-methanone]"
9.39,> 9.00,7.24,6.60,"Cc1cn(-c2ccc(S(=O)(=O)N3CCC(Nc4nc(N)c(C(=O)c5c(F)cccc5F)s4)CC3)cn2)cn1 [Example G27, 1-(4-Amino-2-{1-[6-(4-methyl-imidazol-1-yl)-pyridine-3-sulfonyl]-piperidin-4-ylamino}-thiazol-5-yl)-1-(2,6-difluoro-phenyl)-methanone Hydrochloride]"
9.40,9.07,6.80,6.48,"Cc1cncn1-c1ccc(S(=O)(=O)N2CCC(Nc3nc(N)c(C(=O)c4c(F)cccc4F)s3)CC2)cn1 [Example G28, 1-(4-Amino-2-{1-[6-(5-methyl-imidazol-1-yl)-pyridine-3-sulfonyl]-piperidin-4-ylamino}-thiazol-5-yl)-1-(2,6-difluoro-phenyl)-methanone Hydrochloride]"
